Data published in patent publication US11414454B2, “Compositions, methods, and systems for affinity-based protein identification and purification” (Auctus Biologies, Inc., priority 2017, dated 2022).
No end group written: not given here.

Key:
RPtag (large) = test: Fluorescence anisotropy Kd of rhodamine labeled RPtag (small) peptides for RPtag (large); format: binding, Thermoanaerobacter tengcongensis
Description: (§1) 50 nM of RP-Tag Small (see Sequence 3, below) with an N-terminal Rhodamine B label was incubated with increasing concentrations of either RP-Tag Large (see Sequence 2) or Bovine Serum Albumin (BSA) in 50 mM Tris pH 8.0, 150 mM NaCl, 10 mM 2-mercaptoethanol, and 0.005% Tween 20 for 5 min in black 96-well plates at room temperature.
(§2) Anisotropy was then measured, and a Kd calculated by fitting the data to the equation f=y0+(ymax−y0)*(Ptot+x+Kd−sqrt((Ptot+x+Kd)^2−4*Ptot*x))/(2*Ptot), where y0 is the baseline anisotropy, ymax is the maximum anisotropy, Ptot is the fixed concentration of labeled peptide used, x is the variable concentration of protein used, and Kd is the measured Kd.
(§3) The indicated concentrations of RPtag (large) and an anti-His tag antibody (4E3D10H2/E3 purchased from ThermoFisher Scientific) were incubated with 1 nM rhodamine labeled native RPtag (small) peptide and 6×His peptide (Rhodamine-GHHHHHH), respectively, and fluorescence anisotropy measured. BSA incubated with native rhodamine labeled RPtag(small) is included as a control for non-specific binding. Kd's were calculated according to the equation f=y0+(ymax−y0)*(Ptot+x+Kd−sqrt((Ptot+x+Kd)^2−4*Ptot*x))/(2*Ptot), where y0 is the baseline anisotropy, ymax is the maximum anisotropy, Ptot is the fixed concentration of labeled peptide used, x is the variable concentration of protein used, and Kd is the measured Kd. We measured a Kd of 0.2±0.1 nM for RPtag(large) binding RPtag(small), and a Kd of 6±1 nM for the antibody/6×His tag pair.
Regarding the studies shown in FIG. 14, increasing concentrations of unlabeled RPtag large with the indicated mutations (native, f137d, and f137e) were incubated for 1 h with 1 nM rhodamine labeled RPtag small peptide and the fluorescence anisotropy was measured. Resultant curves were fit with the equation f=y0+(ymax−y0)*(Ptot+x+Kd−sqrt((Ptot+x+Kd)^2−4*Ptot*x))/(2*Ptot), where y0 is the baseline anisotropy, ymax is the maximum anisotropy, Ptot is the fixed concentration of labeled peptide used, x is the variable concentration of protein used, and Kd is the measured Kd. Data are presented here as Ka=1/Kd. Log transformed Ka's were then compared by one-way ANOVA with Holm-Sidak post hoc correction. ***p<0.001, **p<0.01, *p<0.05. data are mean±SEM (n=3-4). Buffer was 50 mM Tris pH 8.0, 0.005% tween20. Proteins were expressed and purified by single step NiNTA chromatography as before. Peptides were synthesized solid-state and handled as previous.

F137D RPtag(large) = test: Compensatory mutation binding study by fluorescence anisotropy; design: species or system Thermoanaerobacter tengcongensis; conditions: 1 nM rhodamine labeled peptide
From the text: The possibility of creating compensatory mutations in the two sequences was investigated by modifying position 14 of RPtag(small) and position 137 of RPtag(large). First, a positively charged lysine (K) was introduced at position L14 of RPtag(small) (FIG. 14). […] Next, position F137 of RPtag(large) was mutated to aspartic acid (D), which is a negatively charged residue under physiologic conditions. This substitution was introduced into RPtag(large) to balance the charge with the L14K substitution, and help restore interaction between the two residues. […] In other embodiments, different compensatory mutations may be introduced at F137 and L14, as well as other positions in the two RPtag proteins.
Regarding the studies shown in FIG. 14, increasing concentrations of unlabeled RPtag large with the indicated mutations (native, f137d, and f137e) were incubated for 1 h with 1 nM rhodamine labeled RPtag small peptide and the fluorescence anisotropy was measured. Resultant curves were fit with the equation f=y0+(ymax−y0)*(Ptot+x+Kd−sqrt((Ptot+x+Kd)^2−4*Ptot*x))/(2*Ptot), where y0 is the baseline anisotropy, ymax is the maximum anisotropy, Ptot is the fixed concentration of labeled peptide used, x is the variable concentration of protein used, and Kd is the measured Kd. Data are presented here as Ka=1/Kd. […]

immobilized RP-Tag Large = test: Column elution trials of rhodamine labeled RP-Tag Small bound to immobilized RP-Tag Large; format: binding, Thermoanaerobacter tengcongensis
Description: One embodiment of the disclosed RP-Tag system was tested by creating a column with one component bound to a solid, agarose-based matrix. In these experiments, a SulfoLink™ Immobilization kit (ThermoFisher scientific) was used to affix RP-Tag Large to a solid support, according to the manufacturer's instructions. For these experiments, an N-terminal linker was added to RP-Large that included a Cys residue. One of skill in the art is able to select various techniques and chemistries to aid in affixing either RP-Tag protein to a solid support matrix.
The amount of protein linked to the column was determined using a BCA assay with Bovine Serum Albumin (BSA) as a standard. […] The linked resin was poured into an included column and the column capped with a frit included in the kit (see photos in FIG. 2). The column was equilibrated with several volumes of 50 mM Tris pH 8.5, 150 mM NaCl, 5 mM EDTA.
25 mL of 1 μM Rhodamine-6B labeled RP-Tag Small, in 50 mM Tris pH 8.5, 150 mM NaCl, 5 mM EDTA, was flowed over the column of immobilized RP-Tag Large protein. RP-Tag Small bound the column and formed a visibly bright red band (rhodamine B) at the top of the resin (see FIG. 2).
Briefly, after binding, the RP-Tag Small red band was not observed to appreciably diffuse and/or elute after washing the column (and band) with various solutions. For these tests, 10 mL (5 column volumes) of various buffers were added to the column. The tested buffers ranged from about pH 1.5-13.7 and about 1 M sodium hydroxide.
Table 1. Summary of elution trial data. The test system used was a column equilibrated with 50 mM Tris pH 8.5, 150 mM NaCl, 5 mM EDTA, and applied 25 mL 1 μM Rhodamine-6B labeled RP-small peptide in the same buffer. In cases where D-ribose was used, the indicated concentration was also included in the equilibration and loading buffer.

[1] = biological target: Bovine Serum Albumin (BSA) (Bos taurus, UniProt P02769); format: binding; conditions: fluorescence anisotropy, rhodamine labeled peptide; up to 10 μM BSA
Description: as §1, §2, §3

RPtag (large) resin = test: Affinity-based precipitation/pull-down with RPtag (large) resin; format: binding, Thermoanaerobacter tengcongensis; conditions: negative control peptide
Description: The disclosed proteins and peptides were used in precipitation/pull-down assays. Specifically, rhodamine was tagged with the RPtag(small) Nd8Cd4 peptide and RPtag(large) was immobilized on a resin, as described above.
Briefly, 100 μL 1000 nM rhodamine labeled RPtag(small) peptide was incubated with 2.5 uL wet settled RPtag (large) resin generated as (as described above) in phosphate buffered saline (PBS; Gibco)+1% BSA+0.005% Tween 20 at 4° C. for 60 min with continuous orbital shaking. Samples were then washed 3× with 500 μL of the same buffer with no peptide to remove unbound peptide. Bound RPtag(small) peptides were then eluted with 100 μL 100 mM glycine pH 1.5+0.005% Tween20, and the pH raised by adding 1 μL 1 M borate pH 10.0. The amount eluted was calculated from the blank subtracted fluorescence of the elution versus the load. After each elution, resin was washed once with 500 μL 6M GdnHCl and once with 500 μL phosphate buffered saline (Gibco)+1% BSA+0.005% Tween 20, before repeating the assay.
Sequential precipitation/pulldown trials were performed with the rhodamine labelled RPtag(small) Nd8Cd4 peptide, and the RPtag(large)-resin. After binding and pull-down, the rhodamine-peptide was eluted in 100 mM glycine pH 1.5, the column was washed with water and 6 M guanidine hydrochloride, and then re-equilibrated with buffer (50 mM Tris pH 8.0, 10 mM EDTA). […]

Chain of F137D RPtag(large) (as listed by the source, stated change not applied): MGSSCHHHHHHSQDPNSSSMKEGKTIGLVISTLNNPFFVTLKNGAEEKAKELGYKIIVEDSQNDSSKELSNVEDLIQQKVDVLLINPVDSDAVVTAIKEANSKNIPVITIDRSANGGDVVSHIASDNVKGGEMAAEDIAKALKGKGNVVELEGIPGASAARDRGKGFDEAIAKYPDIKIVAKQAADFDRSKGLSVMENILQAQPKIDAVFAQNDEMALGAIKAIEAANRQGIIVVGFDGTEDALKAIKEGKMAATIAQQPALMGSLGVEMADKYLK
Chain of Bovine Serum Albumin (BSA) (P02769 25-607): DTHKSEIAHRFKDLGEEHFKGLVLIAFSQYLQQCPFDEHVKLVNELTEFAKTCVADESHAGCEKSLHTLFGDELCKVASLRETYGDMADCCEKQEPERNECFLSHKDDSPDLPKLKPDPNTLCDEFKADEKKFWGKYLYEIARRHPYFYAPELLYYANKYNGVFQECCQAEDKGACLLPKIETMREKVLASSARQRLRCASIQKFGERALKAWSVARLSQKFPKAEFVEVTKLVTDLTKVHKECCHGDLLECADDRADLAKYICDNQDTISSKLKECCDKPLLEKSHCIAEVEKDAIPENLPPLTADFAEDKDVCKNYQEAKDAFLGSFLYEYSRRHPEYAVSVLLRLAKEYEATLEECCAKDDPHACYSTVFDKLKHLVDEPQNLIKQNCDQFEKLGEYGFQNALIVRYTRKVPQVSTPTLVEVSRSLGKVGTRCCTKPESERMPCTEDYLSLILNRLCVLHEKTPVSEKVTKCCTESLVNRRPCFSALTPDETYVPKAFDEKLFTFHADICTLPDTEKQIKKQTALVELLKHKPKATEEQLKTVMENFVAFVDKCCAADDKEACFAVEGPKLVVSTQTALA
Chain of RPtag (large) resin (as listed by the source): as the sequence (as listed by the source, stated change not applied) above, with D137F counted along it

GEKIPNFIPAELKKITKENVQ [l14k]
binding to native RPtag(large) (RPtag (large); 1 nM rhodamine labeled peptide, 50 mM Tris pH 8.0, 0.005% tween20): significantly impaired binding | binding affinity for F137D RPtag(large) (F137D RPtag(large)): substantially restored the binding affinity

GEKIPNFIPAELKLITKENVQ [RP-Tag Small]
Kd (RPtag (large); 50 nM N-terminal Rhodamine B RP-Tag Small, 50 mM Tris pH 8.0, 150 mM NaCl, 10 mM 2-mercaptoethanol, 0.005% Tween 20): 8 nM | Result of elution trial (bound rhodamine band) (immobilized RP-Tag Large; 0.1M Tris pH 7.5 + 100 μM unlabeled RP tag peptide): Partial band elution, slight | Result of elution trial (bound rhodamine band) (immobilized RP-Tag Large; 0.1M Tris pH 7.5 + 6M guanidine hydrochloride): Complete band elution | Result of elution trial (bound rhodamine band) (immobilized RP-Tag Large; 0.1M Tris pH 7.5 + 6M guanidine hydrochloride + 10 mM D-ribose): partial band elution, | Result of elution trial (bound rhodamine band) (immobilized RP-Tag Large; 0.1M Tris pH 7.5 + 6M guanidine hydrochloride + 100 mM D-ribose): no band elution, significant | Result of elution trial (bound rhodamine band) (immobilized RP-Tag Large; 0.1M Tris pH 7.5 + 6M guanidine hydrochloride + 1M D-ribose): No band elution, minor | Result of elution trial (bound rhodamine band) (immobilized RP-Tag Large; 5 column volumes 0.05M sodium acetate pH 4.6): No band diffusion/elution | Result of elution trial (bound rhodamine band) (immobilized RP-Tag Large; 5 column volumes 0.1M Tris pH 7.5): No band diffusion/elution | Result of elution trial (bound rhodamine band) (immobilized RP-Tag Large; 5 column volumes 0.1M Tris pH 8.0): No band diffusion/elution | Result of elution trial (bound rhodamine band) (immobilized RP-Tag Large; 5 column volumes 0.1M Tris pH 8.5): No band diffusion/elution | Result of elution trial (bound rhodamine band) (immobilized RP-Tag Large; 5 column volumes 0.1M glycine pH 1.5): Complete band elution | Result of elution trial (bound rhodamine band) (immobilized RP-Tag Large; 5 column volumes 0.1M glycine pH 2.5): No band diffusion/elution | Result of elution trial (bound rhodamine band) (immobilized RP-Tag Large; 5 column volumes 0.1M glycine pH 3.5): No band diffusion/elution | Result of elution trial (bound rhodamine band) (immobilized RP-Tag Large; 5 column volumes 0.1M sodium phosphate pH 12.0): No band diffusion/elution | Result of elution trial (bound rhodamine band) (immobilized RP-Tag Large; 5 column volumes 0.1M sodium phosphate pH 13.0): No band diffusion/elution | Result of elution trial (bound rhodamine band) (immobilized RP-Tag Large; 5 column volumes 0.1M sodium phosphate pH 13.7): No band diffusion/elution | Result of elution trial (bound rhodamine band) (immobilized RP-Tag Large; 5 column volumes 1M sodium hydroxide): No band diffusion/elution | stability of bound band on column (immobilized RP-Tag Large; room temperature): > 1 week | binding to BSA [1]: no binding

GEKIPNFIP [Cd12]
Kd (RPtag (large); N-terminal rhodamine tagged peptide, unlabeled RPtag (large), 50 mM Tris pH 8.0, 0.005% Tween 20, mean ± SE): > 100000 nM | binding in pulldown (RPtag (large) resin): no binding
